Measured values published in paper PMC5011342, “A high throughput drug screening assay to identify compounds that promote oligodendrocyte differentiation using acutely dissociated and purified oligodendrocyte precursor cells” (BMC Research Notes, 2016).

Experiments:
Mouse OPCs = conditions: ● = hit reported; cited from earlier work
[1] = tested on: acutely dissociated and purified rat OPCs; test: Acute OL differentiation assay (MBP expression/cell, immunofluorescent image quantification); assay type: cell-based; conditions: for activation at 2 µM: 2 uM test compound, read-out: OL differentiation, 2 uM (% Quet); for activation at 10 µM: 10 uM test compound, read-out: OL differentiation, 10 uM (% Quet); for hit in OL differentiation assay, MRF-TMC: ● = confirmed hit in this paper's assay; for promotion of OL differentiation (in words): MBP expression versus 0.1 % DMSO negative control
Summary of the method: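 This acute differentiation assay used purified rat OPCs from postnatal day 6–7 pups, seeded into PDL/laminin-coated 96-well plates in differentiation medium lacking PDGF and FGF. Compounds were applied in quadruplicate after a 1–2 h preincubation at 37 °C, 10 % CO2, with 0.1 % DMSO negative and 40 ng/ml T3 positive controls in eight wells. After fixation on DIV4, anti-MBP immunofluorescence images yielded MBP expression/cell.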

expanded OPCs = test: cells
Summary of the method: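 Toxicity screen: compounds added at 0.1, 1 and 10 µM to PDGF-AA-expanded OPCs in 96-well plates, 3-day incubation at 37 °C, 10% CO2, then alamarBlue 1:10 for 4 h with fluorescence readout. Results set screening doses of 10/2, 2/0.4 or 0.4/0.08 µM.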

Rat OPCs = conditions: ● = hit reported; cited from earlier work
[2] = in vivo models; cited from earlier work
Rat OPCs, Mouse OPCs = conditions: ● = hit reported; cited from earlier work
[3] = design: method as in Trial NCT00039988; conditions: add-on therapy to capaxone (glatiramir acetate), RRMS patients; ref Trial NCT00039988; cited from earlier work
[4] = clinical trial of MS; cited from earlier work
transplanted hOPCs = tested on: transplanted hOPCs; design: method as in PMID 25716865; conditions: hypomyelinated shiverer/rag2 brain; cited from earlier work
[5] = Rattus norvegicus, relative to quetiapine, sheet "All OLga data"

O[C@@H]1CCCC[C@H]1N1CCC(c2ccccc2)CC1 (racemic) [Vesamicol, reference compound]
hit in OL differentiation assay, Najm (Mouse OPCs): ● | activation at 2 µM [1, 5]: 80.7% | activation at 10 µM [1, 5]: 151% | EC50 ([1]; Rattus norvegicus, average EC50 for induction of OL differentiation from independent biological replicates, eight concentrations): 1400 nM | hit in OL differentiation assay, MRF-TMC [1]: ● | viability at 0.1 µM (expanded OPCs; Rattus norvegicus, 72 h, read-out: 0.1 µM (% DMSO), alamarBlue viability of expanded OPCs, compound at 0.1 µM, sheet All Tox data): 94.3% | viability at 1 µM (expanded OPCs; Rattus norvegicus, 72 h, read-out: 1 µM (% DMSO), alamarBlue viability of expanded OPCs, compound at 1 µM, sheet All Tox data): 120% | viability at 10 µM (expanded OPCs; Rattus norvegicus, 72 h, read-out: 10 µM (% DMSO), alamarBlue viability of expanded OPCs, compound at 10 µM, sheet All Tox data): 146%

CN1[C@@H]2CC[C@H]1C[C@@H](OC(c1ccccc1)c1ccccc1)C2 [Benztropine]
hit in OL differentiation assay, Deshmukh (Rat OPCs): ● | hit in OL differentiation assay, Najm (Mouse OPCs): ● | hit in OL differentiation assay, MRF-TMC [1]: ● | stimulating remyelination [2]: efficacy in stimulating remyelination | hit in OL differentiation assay, Mei (Rat OPCs, Mouse OPCs): ●

CN1CCC[C@@H]1CCO[C@](C)(c1ccccc1)c1ccc(Cl)cc1 [Clemastine]
hit in OL differentiation assay, Deshmukh (Rat OPCs): ● | promotion of OL differentiation (in words) [1]: could promote OL differentiation in our assay similar to benztropine | hit in OL differentiation assay, MRF-TMC [1]: ● | stimulating remyelination [2]: efficacy in stimulating remyelination | hit in OL differentiation assay, Mei (Rat OPCs, Mouse OPCs): ●

OCCOCCN1CCN(C2=Nc3ccccc3Sc3ccccc32)CC1 [Quetiapine]
hit in OL differentiation assay, Najm (Mouse OPCs): ● | hit in OL differentiation assay, MRF-TMC [1]: ● | hit in OL differentiation assay, Mei (Rat OPCs, Mouse OPCs): ●

CC/C(=C(\c1ccccc1)c1ccc(OCCN(C)C)cc1)c1ccccc1 [Tamoxifen, reference compound]
hit in OL differentiation assay, Najm (Mouse OPCs): ● | activation at 0.08 µM ([1]; Rattus norvegicus, test compound at 0.08 uM, NCC library screen, sheet "All OLga data", relative to quetiapine, read-out: 0.08 uM (% Quet)): 117% | activation at 0.4 µM ([1]; Rattus norvegicus, test compound at 0.4 uM, NCC library screen, sheet "All OLga data", relative to quetiapine, read-out: 0.4 uM (% Quet)): -49.8% | hit in OL differentiation assay, MRF-TMC [1]: ● | 0.1 µM (% DMSO) (expanded OPCs; alamarBlue viability of expanded OPCs, compound at 0.1 µM, relative to DMSO control): 162.2 % DMSO | 1 µM (% DMSO) (expanded OPCs; alamarBlue viability of expanded OPCs, compound at 1 µM, relative to DMSO control): 55.1 % DMSO | 10 µM (% DMSO) (expanded OPCs; alamarBlue viability of expanded OPCs, compound at 10 µM, relative to DMSO control): 9.5 % DMSO

CC(C)(C)NCC(O)c1ccc(O)c(CO)c1 (stereo not shown) [albuterol, reference compound]
promotion of OL differentiation (in words) [1]: not a hit in our screen | activation at 2 µM [1, 5]: -6% | activation at 10 µM [1, 5]: 18.6% | clinical outcomes [3]: improved clinical outcomes

C[C@]12CC[C@@H]3c4ccc(O)cc4CC[C@H]3[C@@H]1C[C@@H](O)[C@@H]2O [estriol]
lesion numbers and volumes [4]: reducing the lesion numbers and volumes

O=C(O[C@H]1CN2CCC1CC2)N1CCc2ccccc2[C@@H]1c1ccccc1 [solifenacin]
oligodendrocyte differentiation of transplanted hOPCs (transplanted hOPCs): promoted oligodendrocyte differentiation of transplanted hOPCs
